{"source": "patent US20040220411A1", "about": "“Oxalic acid derivatives” (priority 2001, published 2004)"}
{"molecular_target": "factor Xa (Homo sapiens, UniProt P00742)", "sequence (P00742 235-488 limits assumed)": "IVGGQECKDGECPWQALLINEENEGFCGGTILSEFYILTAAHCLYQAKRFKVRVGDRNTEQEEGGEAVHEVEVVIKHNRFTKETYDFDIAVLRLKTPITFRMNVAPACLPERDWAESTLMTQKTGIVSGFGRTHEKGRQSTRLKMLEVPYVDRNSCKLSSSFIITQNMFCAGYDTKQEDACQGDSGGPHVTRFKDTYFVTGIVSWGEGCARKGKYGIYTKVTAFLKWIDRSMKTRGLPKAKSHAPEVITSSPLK", "sequence (P00742 41-179 partner limits assumed)": "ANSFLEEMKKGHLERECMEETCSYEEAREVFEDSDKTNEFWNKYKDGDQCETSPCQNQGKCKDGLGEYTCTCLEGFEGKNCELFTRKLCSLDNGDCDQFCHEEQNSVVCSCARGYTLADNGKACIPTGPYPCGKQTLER", "test": "Inhibition of factor Xa", "assay_type": "biochemical", "settings": "Affinity to receptors", "from_the_text": "The inhibition of factor Xa by the compounds according to the invention and the measurement of the anticoagulant and antithrombotic activity can be determined by conventional in-vitro or in-vivo methods. A suitable method is described, for example, by J. Hauptmann et al. in Thrombosis and Haemostasis 1990, 63, 220-223.\nThe inhibition of factor Xa can be measured, for example by the method of T. Hara et al. in Thromb. Haemostas. 1994, 71, 314-319.", "units": {"IC50": "nM"}}
{"smiles": "CC(C)CN(Cc1cccc(C(=N)N)c1)C(=O)C(=O)Nc1ccc(-c2ccccc2S(N)(=O)=O)cc1", "note": "[Example 1, N-(3-amidinobenzyl)-N-isobutyl-N′-(2′-sulfamoylbiphenyl-4-yl)oxalamide]", "IC50": 10}
{"smiles": "CC(C)CN(Cc1cccc(C(=N)N)c1)C(=O)C(=O)Nc1ccc(-c2ccccc2S(=O)(=O)NC(C)(C)C)cc1", "note": "[Example 1g, N-(2′-tert-butylsulfamoylbiphenyl-4-yl)-N′-(3-amidinobenzyl)-N′-isobutyloxalamide]", "IC50": 300}
{"smiles": "CC(C)CN(Cc1cccc(C(=N)N)c1)C(=O)C(=O)Nc1ccc(-c2ccccc2S(C)(=O)=O)cc1", "note": "[Example 3, N-(3-amidinobenzyl)-N-isobutyl-N′-(2′-methanesulfonylbiphenyl-4-yl)oxalamide]", "IC50": 9.6}
{"smiles": "COC(=O)NC(=N)c1cccc(CN(CC(C)C)C(=O)C(=O)Nc2ccc(-c3ccccc3S(C)(=O)=O)cc2)c1", "note": "[Example 4, Methyl [imino-(3-{[isobutyl-(2′-methanesulfonylbiphenyl-4-ylaminooxalyl)amino]methyl}phenyl)methyl]carbamate]", "IC50": 3500}
{"smiles": "CC(C)CN(Cc1cccc(C(=N)N)c1)C(=O)C(=O)Nc1ccc(-c2ccc(C(=N)N)cc2)cc1", "note": "[Example 5, N-(3-amidinobenzyl)-N′-(4′-amidinobiphenyl-4-yl)-N-isobutyloxalamide]", "IC50": 1000}
{"smiles": "CC(C)CN(Cc1cccc(C(=N)N)c1)C(=O)C(=O)Nc1ccc(-c2ccc(CN)cc2)cc1", "note": "[Example 6, N-(4′-Aminomethylbiphenyl-4-yl)-N′-(3-amidinobenzyl)-N′-isobutyloxalamide]", "IC50": 1500}
{"smiles": "CC(C)CN(Cc1cccc(C(=O)O)c1)C(=O)C(=O)Nc1ccc(-c2ccccc2S(N)(=O)=O)cc1", "note": "[Example 7, 3-{[Isobutyl-(2′-sulfamoylbiphenyl-4-ylaminooxalyl)amino]methyl}benzoic acid]", "IC50": 6000}
